Assay results reported in paper PMC10920779, “Targeting P2Y14R protects against necroptosis of intestinal epithelial cells through PKA/CREB/RIPK1 axis in ulcerative colitis” (Nature Communications, 2024).
Values joined by “and” are separate entries in the source; they are usually repeats but may differ in a detail not shown here. Identical values can stand only once.

How the values were obtained:
MLKL phosphorylation [1] = assay: Immunoblotting of p-MLKL/MLKL in HCT-116 cells; type: cell-based, human; settings: P2Y14R-OE cells + TSZ, replicates, supplement Figure 2g
Experimental: (§1) Tissues and cells were lysed using RIPA lysis buffer (Beyotime Biotechnology) containing protease and phosphatase inhibitor, homogenated, and centrifuged. The protein concentration was determined by BCA protein assay (Beyotime Biotechnology). Equal concentrations of proteins were separated in a 10% SDS-PAGE and transferred to PVDF membrane. […] Densitometry was quantified using ImageJ software.

intestinal organoids = assay: TSZ-induced necroptosis in intestinal organoids (PI staining); type: cell-based, mouse; settings: P2Y14Rfl/fl organoids, UDPG+TSZ
Experimental: Crypts were released from the murine small intestine by incubation for 30 min at 4°C in PBS containing 2 mM EDTA. Isolated crypts were counted and pelleted. […] Organoid media were changed every 3 days. […] Dead cell imaging in live organoids was performed on the fluorescence microscope (BX53, Olympus Optical), and analyzed by image j.

[2] = tested on: PKA and CREB phosphorylation; assay: Immunoblotting of p-PKA and p-CREB in HT-29 cells; type: cell-based, human
Experimental: as §1

Ripk1 mRNA [3] = assay: RT-PCR of Ripk1 mRNA in intestinal epithelial cells of experimental colitis mice; type: in vivo, mouse; settings: Figure 7i, group TSZ+UDPG+Nec-1s
Experimental: Colon tissues derived from the euthanized by carbon dioxide inhalation mice were opened longitudinally and washed in pre-cooling PBS for three times. Then, the tissues were cut into 3 mm^2 pieces and incubated with 5 mM EDTA solution in PBS on a constant temperature shaker at 200 rpm for 25 min at 37°C. Then, let it stand at room temperature for 30 seconds and collected the supernatant. Next, repeated the above process once. Supernatants from the above step were combined and centrifuged at 500 g for 8 min. Abandon the supernatants and obtain IECs.
(§2) Total RNA was extracted from cells or colonic tissues using Trizol (Thermo) under the manufacturer’s instructions. First strand cDNA was synthesized using the PrimeScript RT Reagent Kit (480, Abm). SYBR Green Master Mix reagents (Q331-02, Vazyme) and primer mixtures (Table S1) were used for the real-time PCR. […] The procedure was as described in the kit provided by the manufacturer. Briefly, isolated IECs were fixed by 1% formaldehyde, and fragmented by sonication. CREB was then used for immunoprecipitation. After washing and reverse-crosslinking, the precipitated DNA was amplified by primers and quantified by the qPCR. Primer sequences can be found in Supplementary Table 1.

[4] = tested on: CREB binding to Ripk1 promoter; assay: ChIP-qPCR with anti-CREB on Ripk1 gene promoter in HCT-116 cells; type: cell-based, human
Text: as §2

Ripk1 mRNA [5] = assay: RT-PCR of Ripk1 mRNA in HT-29 cells; type: cell-based, human
Text: as §2

[6] = tested on: PKA and CREB phosphorylation; assay: Immunoblotting of p-PKA and p-CREB in HCT-116 cells; type: cell-based, human
Experimental: as §1

HCT-116 cells = assay: TSZ-induced necroptosis in HCT-116 cells (PI/Hoechst staining); type: cell-based, human
Experimental: (§3) Necroptosis was induced by pretreatment with TNF‐α (20 ng·mL^−1) plus z‐VAD‐fmk (20 μM) and Smac mimetic (BV6, 2 μM) for 8 h, then stained cells with hematoxylin/eosin. For PI/Hoechst staining, cells were stained with PI and Hoechst for 20 min, then photographed with a fluorescence microscope and at least 300 cells were counted. The ratio of PI positive cells (%) = (PI positive cells) / (Hoechst positive cells) × 100%. For cell viability assay, CCK8 was added to the well and incubated for 1 − 2 h and then OD450 was measured using a multi-mode microplate reader (Cytation5, BioTek).

Ripk1 mRNA [7] = assay: RT-PCR of Ripk1 mRNA in HCT-116 cells; type: cell-based, human
Text: as §2

[8] = tested on: CREB binding to Ripk1 promoter; assay: ChIP-qPCR with anti-CREB on Ripk1 gene promoter in HT-29 cells; type: cell-based, human
Text: as §2

MLKL phosphorylation [9] = assay: Immunoblotting of p-MLKL/MLKL in HT-29 cells; type: cell-based, human; settings: P2Y14R-OE cells + TSZ, replicates, supplement Figure 2e
Experimental: as §1

HT-29 cells = assay: TSZ-induced necroptosis in HT-29 cells (CCK8 viability, PI/Hoechst, H&E staining); type: cell-based, human
Experimental: as §3

[10] = HCT-116 cells, UDPG+TSZ, pre-treatment
[11] = HT-29 cells, UDPG+TSZ, pre-treatment

## CN1C(=O)NC(Cc2c[nH]c3c(Cl)cccc23)C1=O (centres unmarked) [Nec-1s]
MLKL phosphorylation [1]
  P-MLKL/MLKL: 2.175 and 2.507 and 2.289 and 2.573 and 2.48
Intestinal organoids
  UDPG-increased TSZ necroptosis in organoids: remarkably attenuated this damage
[2]; UDPG+TSZ
  Phosphorylation level of PKA/CREB pathway: did not affect the phosphorylation level of PKA/CREB pathway
[2]; added to UDPG+TSZ, Figure 5k
  P-CREB/CREB: 0.2673 and 0.2178 and 0.2551 and 0.2611 and 0.3759
Ripk1 mRNA [3]
  Expression of Ripk1 in IEC, 2^△△CT: 1.11 and 1.102 and 0.9517 and 0.9698 and 1.16
[4]; Figure 5p, added to TSZ+UDPG
  CREB binding Ripk1 promoter: 42.22% and 33.74% and 27.53%
[4]; [10]
  Decrease of binding between CREB and Ripk1 promoter (ChIP): did not affect this process
Ripk1 mRNA [5]; [11]
  Ripk1 transcript (mRNA): showed no effect
Ripk1 mRNA [5]; added to TSZ+UDPG
  Expression of Ripk1 in HT-29 cell, 2^△△CT: 3.657 and 4.786 and 3.641 and 3.399 and 4.214 and 3.302
[6]; Figure 5n, second block, added to UDPG+TSZ
  P-PKA/PKA: 0.2244 and 0.2706 and 0.2071 and 0.4048 and 0.2633
[6]; UDPG+TSZ
  Phosphorylation level of PKA/CREB pathway: did not affect the phosphorylation level of PKA/CREB pathway
HCT-116 cells; HCT-116 cells, UDPG+TSZ
  UDP-glucose derived damage on TSZ-stimulated necroptosis: remarkably attenuated the UDP-glucose derived damage on TSZ-stimulated necroptosis
HCT-116 cells; P2Y14R-OE cells + TSZ, replicates, supplement Figure 2f
  PI positive (%): 1.2% and 1.6% and 3.0%
HCT-116 cells; P2Y14R-overexpression HCT-116 cells, pre-treated
  TSZ-stimulated necroptosis: alleviated this phenomenon
Ripk1 mRNA [7]; [10]
  Ripk1 transcript (mRNA): showed no effect
Ripk1 mRNA [7]; added to TSZ+UDPG
  Expression of Ripk1 in HCT-116 cell, 2^△△CT: 2.77 and 2.8504 and 2.771 and 2.541 and 2.7034
[8]; Figure 5m, added to TSZ+UDPG
  CREB binding Ripk1 promoter: 4.90% and 6.57% and 1.83%
[8]; [11]
  Decrease of binding between CREB and Ripk1 promoter (ChIP): did not affect this process
MLKL phosphorylation [9]
  P-MLKL/MLKL: 2.79 and 2.6518 and 3.608 and 1.739 and 2.51
HT-29 cells; HT-29 cells, UDPG+TSZ
  UDP-glucose derived damage on TSZ-stimulated necroptosis: remarkably attenuated the UDP-glucose derived damage on TSZ-stimulated necroptosis
HT-29 cells; P2Y14R-OE cells + TSZ, replicates
  Cell viability: 99.7919 and 100.274 and 99.3783 and 100.966 and 100.911 and 101.005
HT-29 cells; P2Y14R-OE cells + TSZ, replicates, supplement Figure 2c
  PI positive (%): 6.21% and 5.544% and 2.585%
HT-29 cells; P2Y14R-overexpression HT-29 cells, 1h pre-treatment, TSZ 8 h
  TSZ-stimulated necroptosis: alleviated TSZ stimulated IECs necroptosis
